Test results from ChEMBL document CHEMBL3817840, “Discovery of CNS Penetrant CXCR2 Antagonists for the Potential Treatment of CNS Demyelinating Disorders” (ACS Med Chem Lett, 2016).

Tests used:
[1] = molecular target: T1, C-X-C chemokine receptor type 2 (Homo sapiens, UniProt P25025); assay: Antagonist activity at human recombinant Gal4-VP16 fused-CXCR2 assessed as inhibition of CXCL1-mediated lactamase reporter gene expression after overnight incubation
T1 sequence (P25025 whole entry): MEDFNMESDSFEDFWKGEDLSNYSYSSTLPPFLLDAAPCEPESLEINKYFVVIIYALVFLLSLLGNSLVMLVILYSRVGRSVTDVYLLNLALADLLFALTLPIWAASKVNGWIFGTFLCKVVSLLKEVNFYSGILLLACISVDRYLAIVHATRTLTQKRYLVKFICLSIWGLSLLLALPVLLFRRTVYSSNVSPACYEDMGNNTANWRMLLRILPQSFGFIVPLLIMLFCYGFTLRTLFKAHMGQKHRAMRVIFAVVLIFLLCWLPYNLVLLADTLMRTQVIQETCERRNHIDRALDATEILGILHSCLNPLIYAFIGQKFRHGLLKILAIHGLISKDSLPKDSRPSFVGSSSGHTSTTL

[2] = (§1) AUC (0 to 4 hrs) in C57BL/6 mouse blood at 2 mg/kg, ip by UPLC/MS/MS analysis; type: ADME, organism-based; parameters: dose 2 mg/kg, time < 4 hr, route intraperitoneal; settings: C57BL/6, mouse, blood
[3] = system: Brain; assay: AUC (0 to 4 hrs) in C57BL/6 mouse brain at 2 mg/kg, ip by UPLC/MS/MS analysis; type: ADME, organism-based; parameters: dose 2 mg/kg, time < 4 hr, route intraperitoneal; settings: in vivo
[4] = Ratio of drug level in C57BL/6 mouse brain to blood at 2 mg/kg, ip; type: ADME, organism-based; settings: for Kp: C57BL/6, mouse, brain/blood; for Ratio: mouse, brain, BLD = below limit of detection
[5] = system: Blood; assay: as §1; type: ADME, organism-based; parameters: dose 2 mg/kg, time < 4 hr, route intraperitoneal; settings: mouse, in vivo, 4 h, BLD = below limit of detection
[6] = AUC (0 to 4 hrs) in C57BL/6 mouse blood at 1.9 mg/kg, po by UPLC/MS/MS analysis; type: ADME, organism-based; parameters: dose 1.9 mg/kg, time < 4 hr, route oral
[7] = system: Brain; assay: AUC (0 to 4 hrs) in C57BL/6 mouse brain at 1.9 mg/kg, po by UPLC/MS/MS analysis; type: ADME, organism-based; parameters: dose 1.9 mg/kg, time < 4 hr, route oral; settings: in vivo
[8] = Ratio of drug level in C57BL/6 mouse brain to blood at 1.9 mg/kg, po; type: ADME, organism-based
[9] = AUC (0 to 4 hrs) in C57BL/6 mouse blood at 3.4 mg/kg, po by UPLC/MS/MS analysis; type: ADME, organism-based; parameters: time < 4 hr, dose 3.4 mg/kg, route oral
[10] = system: Brain; assay: AUC (0 to 4 hrs) in C57BL/6 mouse brain at 3.4 mg/kg, po by UPLC/MS/MS analysis; type: ADME, organism-based; parameters: dose 3.4 mg/kg, time < 4 hr, route oral; settings: in vivo
[11] = Ratio of drug level in C57BL/6 mouse brain to blood at 3.4 mg/kg, po; type: ADME, organism-based

Compound | IC50 [1] [nM] | AUC(0-t) at 4 h [2] [ng·h/mL] | AUC [3] [ng·h/g] | Kp [4] | also measured
CCN1CCN(S(=O)(=O)c2c(Cl)ccc(NC(=O)Nc3cccc(F)c3Cl)c2O)CC1 | 1 | 189 | 128 | 0.67 | 
O=C(Nc1ccc(Cl)c(C(=O)N2CCCC2)c1O)Nc1cccc(F)c1Cl | 1 |  |  |  | AUC [5]: BLD; AUC ([3]; BLD = below limit of detection): BLD; Ratio [4]: BLD
CN1CC[C@H](S(=O)(=O)c2c(Cl)ccc(NC(=O)Nc3cccc(F)c3Cl)c2O)C1 | 0.501 | 432 | 136 | 0.32 | 
O=C(Nc1ccc(Cl)c(S(=O)(=O)C2CCC2)c1O)Nc1cccc(F)c1Cl | 0.316 | 103 | 28.4 | 0.28 | 
O=C(Nc1ccc(Cl)c(S(=O)(=O)C2CCCCC2)c1O)Nc1cccc(F)c1Cl | 0.316 |  |  |  | AUC [5]: BLD; AUC ([3]; BLD = below limit of detection): BLD; Ratio [4]: BLD
CN1CCN(S(=O)(=O)c2c(Cl)ccc(NC(=O)Nc3cccc(Cl)c3Cl)c2O)CC1 | 0.794 | 303 | 151 | 0.5 | 
NS(=O)(=O)c1c(Cl)ccc(NC(=O)Nc2cccc(Cl)c2Cl)c1O | 2 |  |  |  | AUC(0-t) at 4 h [6]: 352 ng·h/mL; AUC [7]: 49 ng·h/g; Kp [8]: 0.14
O=C(Nc1ccc(Cl)c(S(=O)(=O)N2CCNCC2)c1O)Nc1cccc(Cl)c1Cl | 0.631 |  |  |  | AUC(0-t) at 4 h [9]: 855 ng·h/mL; AUC [10]: 143 ng·h/g; Kp [11]: 0.17
CC(C)N1CCN(S(=O)(=O)c2c(Cl)ccc(NC(=O)Nc3cccc(F)c3Cl)c2O)CC1 | 1.58 | 52.9 | 99 | 1.87 | 
CN1CCN(S(=O)(=O)c2c(Cl)ccc(NC(=O)Nc3cccc(F)c3Cl)c2O)CC1 | 0.794 | 176 | 83 | 0.47 | 
CN1CC2(CC(S(=O)(=O)c3c(Cl)ccc(NC(=O)Nc4cccc(F)c4Cl)c3O)C2)C1 | 0.398 | 1050 | 22.9 | 0.02 | 
C[C@@H]1CN(S(=O)(=O)c2c(Cl)ccc(NC(=O)Nc3cccc(F)c3Cl)c2O)C[C@H](C)O1 | 3.98 | 279 | 96 | 0.35 | 
O=C(Nc1ccc(Cl)c(S(=O)(=O)C2CCNCC2)c1O)Nc1cccc(Cl)c1Cl | 2 | 904 | 29.8 | 0.03 | 
O=C(Nc1ccc(Cl)c(S(=O)(=O)C2CCOCC2)c1O)Nc1cccc(Cl)c1Cl | 0.794 | 290 | 37 | 0.13 | 
